Patent publication US20230265151A1, “GIP/GLP1 CO-AGONIST COMPOUNDS” (priority 2020, published 2023)
Like-named read-outs stand apart in the source and are kept apart here. *1 amine or outer side, *2 acyl side, *3 side chain or, on linkers, in order; H or OH if unused. Where a SMILES comes first, the peptide text is derived from it. Side-chain parts run from the residue outwards. [ ]: non-standard residue; d: D form. The star is where a group is joined. αMePhe(2-F) = C[C@](N)(Cc1ccccc1F)C(=O)O; γGlu = O=C(O)[C@H](CCC(=O)[*:2])N[*:1]; C14 diacid = O=C(O)CCCCCCCCCCCCC(=O)*; αMeY = C[C@](N)(Cc1ccc(O)cc1)C(=O)O; 4Pal = N[C@@H](Cc1ccncc1)C(=O)O; αMeL = CC(C)C[C@](C)(N)C(=O)O; Orn = NCCC[C@H](N)C(=O)O; AEEA = NCCOCCOCC(=O)O; Aib = CC(C)(N)C(=O)O

Columns and labels:
[1] = molecular target: T1, human Gcg receptor (hGcgR) (Homo sapiens, UniProt P47871); experiment: [125I]-Glucagon binding, SPA with membranes of HEK293 cells expressing hGcgR; settings: human GcgR; geometric mean (SEM, n); read-out: Binding Affinity Ki, nM (SEM, n) hGCGR
T1 construct: expressed in transfected cells; crude membranes
T1 sequence (P47871 26-477): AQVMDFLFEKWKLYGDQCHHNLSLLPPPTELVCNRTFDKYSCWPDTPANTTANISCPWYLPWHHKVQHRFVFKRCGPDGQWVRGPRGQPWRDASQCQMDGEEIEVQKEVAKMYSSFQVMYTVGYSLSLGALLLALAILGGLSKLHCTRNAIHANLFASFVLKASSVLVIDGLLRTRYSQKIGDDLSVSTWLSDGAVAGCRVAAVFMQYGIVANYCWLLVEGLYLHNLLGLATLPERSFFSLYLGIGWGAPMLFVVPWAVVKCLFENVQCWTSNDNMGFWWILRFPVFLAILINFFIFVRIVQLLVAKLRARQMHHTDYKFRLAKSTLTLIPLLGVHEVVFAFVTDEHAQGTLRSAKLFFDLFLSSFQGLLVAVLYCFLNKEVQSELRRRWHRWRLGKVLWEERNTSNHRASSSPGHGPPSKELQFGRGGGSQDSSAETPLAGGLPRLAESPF
Experimental: Two methods are used for the preparation of crude cell membranes.
Method 1: Frozen cell pellets are lysed on ice in hypotonic buffer containing 50 mM Tris HCl, pH 7.5, and Roche Complete™ Protease Inhibitors with EDTA. […] The homogenate is centrifuged at 4° C. at 1100 × g for 10 minutes. The supernatant is collected and stored on ice while the pellets are resuspended in homogenization buffer and rehomogenized as described above. The homogenate is centrifuged at 1100 × g for 10 minutes. The second supernatant is combined with the first supernatant and centrifuged at 35000 × g for 1 hour at 4° C. The resulting membrane pellet is resuspended in homogenization buffer containing protease inhibitors at approximately 1 to 3 mg/mL, quick frozen in liquid nitrogen and stored as aliquots in a -80° C. freezer until use.
The homogenate is centrifuged at 4° C. at 1800 × g for 15 minutes. The supernatant is collected and stored on ice while the pellets are resuspended in homogenization buffer (without DNAse I) and rehomogenized as described above. The homogenate is centrifuged at 1800 × g for 15 minutes. The second supernatant is combined with the first supernatant and centrifuged an additional time at 1800 × g for 15 minutes. The overall supernatant is then centrifuged at 25000 × g for 30 minutes at 4° C. The resulting membrane pellet is resuspended in homogenization buffer (without DNAse I) containing protease inhibitors at approximately 1 to 3 mg/mL and stored as aliquots in a -80° C. freezer until use.
The human Gcg receptor binding assays are performed using a Scintillation Proximity Assay (SPA) format with wheat germ agglutinin (WGA) beads (Perkin Elmer). The binding buffer contains 25 mM 4-(2-hydroxyethyl)-1-piperazineethanesulfonic acid (HEPES), pH 7.4, 2.5 mM CaCl2, 1 mM MgCh, 0.1% (w/v) bacitracin (Research Products), 0.003% (w/v) Polyoxyethylenesorbitan monolaurate (TWEEN®-20), and Roche Complete™ Protease Inhibitors without EDTA. […] Next, 5 µL serially diluted compound or DMSO is transferred into Corning® 3632 clear bottom assay plates containing 45 µL assay binding buffer or unlabeled Gcg control (non-specific binding or NSB, at 1 µM final). […] Plates are sealed and mixed on a plate shaker (setting 6) for 1 minute and read with a PerkinElmer Trilux MicroBeta® scintillation counter after 12 hours of incubation/settling time at room temperature.
Raw CPM data for concentration curves of peptides, Gcg, GLP-1, or GIP are converted to percent inhibition by subtracting nonspecific binding (binding in the presence of excess unlabeled Gcg, GLP-1, or GIP, respectively) from the individual CPM values and dividing by the total binding signal, also corrected by subtracting nonspecific binding. Data are analyzed using four-parameter (curve maximum, curve minimum, IC50, Hill slope) nonlinear regression routines (Genedata Screener, version 12.0.4, Genedata AG, Basal, Switzerland). […] Values for Ki are reported as the geometric mean, with error expressed as the standard error of the mean (SEM) and n is equal to the number of independent replicates (determined in assays performed on different days). Geometric Means are calculated as follows: […]
The Ki Ratio (Ki for native control peptide/Ki for test compound) at each receptor and each species is calculated. The Ki Ratio is a rapid indication of the apparent affinity of a peptide compared to the native control peptide.
n=⅟x means that only one value out of the total number of replicates (x) is used to express the mean. SEM is only calculated when n=2 or greater non-qualified results exist. Means are expressed as GeoMetric means with the standard error of the mean (SEM) and the number of replicates (n) indicated in parenthesis.

[2] = molecular target: T2, hGIPR (Homo sapiens, UniProt P48546); experiment: Functional cAMP formation (HTRF) in HEK-293 clonal cells expressing hGIPR, 0.1% bovine casein, without or with 1.0% human serum albumin; type: cell-based; settings: 37° C.; for Emax: read-out: hGIPR Emax, % ± SEM
T2 construct: expressed in transfected cells
T2 sequence (P48546 22-466): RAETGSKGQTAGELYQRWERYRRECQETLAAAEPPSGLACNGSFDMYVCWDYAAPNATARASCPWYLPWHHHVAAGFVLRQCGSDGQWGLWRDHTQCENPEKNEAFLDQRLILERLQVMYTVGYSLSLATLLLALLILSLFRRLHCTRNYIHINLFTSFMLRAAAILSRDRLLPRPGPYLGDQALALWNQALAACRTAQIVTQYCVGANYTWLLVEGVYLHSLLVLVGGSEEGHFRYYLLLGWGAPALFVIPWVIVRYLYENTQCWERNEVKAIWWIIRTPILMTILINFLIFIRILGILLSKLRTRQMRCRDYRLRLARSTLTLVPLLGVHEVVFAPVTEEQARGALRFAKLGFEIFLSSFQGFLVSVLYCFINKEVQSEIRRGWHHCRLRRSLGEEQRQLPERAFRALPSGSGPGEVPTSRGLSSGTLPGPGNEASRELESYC
How it was run: (§1)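 Readings of the HTRF 665/620 nm ratio, which falls as cAMP rises, were converted to nM cAMP using a standard curve after 30 min peptide exposure at 37° C.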

[3] = molecular target: T3, hGCGR (Homo sapiens, UniProt P47871); experiment: Functional cAMP formation (HTRF) in HEK-293 clonal cells expressing hGCGR, 0.1% bovine casein, without or with 1.0% human serum albumin; type: cell-based; settings: read-out: hGCGR EC50, nM (SEM, n)
T3 construct: expressed in transfected cells
T3 sequence (P47871 26-477): as the sequence (P47871 26-477) above
How it was run: as §1

[4] = molecular target: hGLP-1R (Homo sapiens, UniProt P43220); experiment: Functional cAMP formation (HTRF) in HEK-293 clonal cells expressing hGLP-1R, 0.1% bovine casein, without or with 1.0% human serum albumin; type: cell-based; parameters: expressed in transfected cells; settings: for Emax: read-out: hGLP-1R Emax, % ± SEM; for EC50: cAMP, read-out: hGLP-1R EC50, nM (SEM, n)
Chain of hGLP-1R (P43220 24-463): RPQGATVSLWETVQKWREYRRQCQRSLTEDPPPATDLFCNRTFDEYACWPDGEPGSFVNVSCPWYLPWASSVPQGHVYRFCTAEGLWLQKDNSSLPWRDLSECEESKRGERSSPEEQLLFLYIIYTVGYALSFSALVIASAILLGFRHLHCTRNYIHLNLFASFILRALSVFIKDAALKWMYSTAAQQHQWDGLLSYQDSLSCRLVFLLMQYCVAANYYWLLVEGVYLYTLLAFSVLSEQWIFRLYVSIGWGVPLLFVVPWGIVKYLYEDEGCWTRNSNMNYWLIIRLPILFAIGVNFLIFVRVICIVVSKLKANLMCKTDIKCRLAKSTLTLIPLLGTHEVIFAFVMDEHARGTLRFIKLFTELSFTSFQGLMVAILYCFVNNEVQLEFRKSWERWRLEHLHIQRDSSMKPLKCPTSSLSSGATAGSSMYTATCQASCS
How it was run: as §1

| SMILES | Ki [1] [nM] | Emax ([2]; HEK293, cAMP, 0.1% bovine casein and 1.0% human serum albumin, percent of maximal response to GIP(1-42)NH2) [%] | EC50 ([2]; cAMP, 0.1% bovine casein (no human serum albumin), geometric mean, read-out: hGIPR EC50, nM (SEM, n)) [nM] | EC50 ([3]; cAMP, 37° C., 0.1% bovine casein (no human serum albumin), geometric mean) [nM] | EC50 ([3]; cAMP, 37° C., 0.1% bovine casein and 1.0% human serum albumin, geometric mean (SEM, n)) [nM] | Emax ([4]; HEK293, cAMP, 37° C., 0.1% bovine casein and 1.0% human serum albumin, percent of maximal response to GLP-1(7-36)NH2) [%] | Emax ([4]; HEK293, cAMP, 37° C., 0.1% bovine casein, percent of maximal response to GLP-1(7-36)NH2, arithmetic mean) [%] | EC50 ([4]; 37° C., 0.1% bovine casein (no human serum albumin), geometric mean) [nM] | EC50 ([4]; 37° C., 0.1% bovine casein and 1.0% human serum albumin, geometric mean (SEM, n)) [nM] | Emax ([2]; HEK293, 0.1% bovine casein and 1.0% human serum albumin, percent of maximal response to GIP(1-42)NH2) [%] | Emax ([2]; HEK293, percent of maximal response to GIP(1-42)NH2, 0.1% bovine casein, arithmetic mean) [%] | EC50 ([3]; 0.1% bovine casein and 1.0% human serum albumin, 37° C., geometric mean) [nM] | EC50 ([3]; cAMP, incubated at 37° C., 0.1% bovine casein (no human serum albumin), geometric mean) [nM] | Emax ([4]; HEK293, 0.1% bovine casein and 1.0% human serum albumin, 37° C., percent of maximal response to GLP-1(7-36)NH2) [%] | Emax ([4]; HEK293, percent of maximal response to GLP-1(7-36)NH2, 37° C., 0.1% bovine casein, arithmetic mean) [%] | EC50 ([4]; incubated at 37° C., 0.1% bovine casein (no human serum albumin), geometric mean) [nM] |
| --- | --- | --- | --- | --- | --- | --- | --- | --- | --- | --- | --- | --- | --- | --- | --- | --- |
| CC[C@H](C)[C@H](NC(=O)[C@H](CC(C)C)NC(=O)[C@](C)(Cc1ccc(O)cc1)NC(=O)[C@@H](CCC(=O)O)NC(=O)[C@@H](NC(=O)[C@H](Cc1ccccc1)NC(=O)[C@H](CCCCNC(=O)COCCOCCNC(=O)COCCOCCNC(=O)CC[C@H](NC(=O)CCCCCCCCCCCCC(=O)O)C(=O)O)NC(=O)C(C)(C)NC(=O)[C@H](CCC(N)=O)NC(=O)[C@H](C)NC(=O)[C@H](CCC(N)=O)NC(=O)[C@H](CCCN)NC(=O)[C@H](CC(=O)O)NC(=O)[C@H](CC(C)C)NC(=O)[C@](C)(CC(C)C)NC(=O)[C@@H](NC(=O)C(C)(C)NC(=O)[C@H](Cc1ccncc1)NC(=O)[C@H](CC(=O)O)NC(=O)[C@H](CO)NC(=O)[C@@H](NC(=O)[C@](C)(Cc1ccccc1F)NC(=O)[C@@H](NC(=O)CNC(=O)[C@H](CCC(=O)O)NC(=O)C(C)(C)NC(=O)[C@@H](N)Cc1ccc(O)cc1)[C@@H](C)O)[C@@H](C)O)[C@@H](C)CC)[C@@H](C)CC)C(=O)N[C@@H](CCC(=O)O)C(=O)NCC(=O)NCC(=O)N1CCC[C@H]1C(=O)N[C@@H](CO)C(=O)N[C@@H](CO)C(=O)NCC(=O)N[C@@H](C)C(=O)N1CCC[C@H]1C(=O)N1CCC[C@H]1C(=O)N1CCC[C@H]1C(=O)N[C@@H](CO)C(=O)N[C@@H](CCCCNC(=O)COCCOCCNC(=O)COCCOCCNC(=O)CC[C@H](NC(=O)CCCCCCCCCCCCC(=O)O)C(=O)O)C(N)=O [Example 489] (H-Y[Aib]EGT[αMePhe(2-F)]TSD[4Pal][Aib]I[αMeL]LD[Orn]QAQ[Aib]K([AEEA-AEEA-γGlu-C14 diacid])FI[dE][αMeY]LIEGGPSSGAPPPSK([AEEA-AEEA-γGlu-C14 diacid])-NH2) | > 957 | 79.4 | 0.0131 | > 10100 | > 9950 | 98.7 | 112 | 0.257 | 13.5 | – | – | – | – | – | – | – |
| CC[C@H](C)[C@H](NC(=O)[C@H](CC(C)C)NC(=O)[C@](C)(Cc1ccc(O)cc1)NC(=O)[C@@H](CCC(=O)O)NC(=O)[C@@H](NC(=O)[C@H](Cc1ccccc1)NC(=O)[C@H](CCC(=O)O)NC(=O)C(C)(C)NC(=O)[C@H](CCC(N)=O)NC(=O)[C@H](C)NC(=O)[C@H](CCCCNC(=O)COCCOCCNC(=O)COCCOCCNC(=O)CC[C@H](NC(=O)CCCCCCCCCCCCC(=O)O)C(=O)O)NC(=O)[C@H](CCCN)NC(=O)[C@H](CC(=O)O)NC(=O)[C@H](CC(C)C)NC(=O)[C@](C)(CC(C)C)NC(=O)[C@@H](NC(=O)[C@H](CO)NC(=O)[C@](C)(Cc1ccccc1)NC(=O)[C@H](CC(=O)O)NC(=O)[C@H](CO)NC(=O)[C@@H](NC(=O)[C@](C)(Cc1ccccc1)NC(=O)[C@@H](NC(=O)CNC(=O)[C@H](CCC(=O)O)NC(=O)C(C)(C)NC(=O)[C@@H](N)Cc1ccc(O)cc1)[C@@H](C)O)[C@@H](C)O)[C@@H](C)CC)[C@@H](C)CC)C(=O)N[C@@H](CCC(=O)O)C(=O)NCC(=O)NCC(=O)N[C@@H](CCCCNC(=O)COCCOCCNC(=O)COCCOCCNC(=O)CC[C@H](NC(=O)CCCCCCCCCCCCC(=O)O)C(=O)O)C(=O)N[C@@H](CO)C(=O)N[C@@H](CO)C(=O)NCC(=O)N[C@@H](C)C(=O)N1CCC[C@H]1C(=O)N1CCC[C@H]1C(=O)N1CCC[C@H]1C(=O)N[C@@H](CO)C(N)=O [Example 45] | > 966 | – | – | – | – | – | – | – | – | 72.5 | 91.3 ± 1.04 | > 9950 | > 9950 | 109 | 85.7 ± 8.37 | 9.18 |
